Laboratory results from the NIST ThermoML archive (doi:10.1016/j.fluid.2013.06.019).
± gives the expanded uncertainty stated by the source.

Conditions: Crystal; Heating/Cooling curves
Work on C=C(F)C(F)(F)F [2,3,3,3-tetrafluoro-1-propene] yielded a Triple point temperature of 122.6 ± 2 K.
Work on F/C=C/C(F)(F)F [trans-1,3,3,3-tetrafluoropropene] yielded a Triple point temperature of 168.8 ± 2 K.
With O=C=O [carbon dioxide] the Triple point temperature was 216.6 ± 2 K.
